The test system of data set [1] is Vero. The data set can be described thus: Inhibition of glycoprotein in VSV pseudotyped Ebolavirus infected in African green monkey Vero cells assessed as reduction in virus entry at 5 uM incubated for 24 hrs by luciferase reporter gene assay relative to control. The class given is cell-based.
Data set [2] is described as follows: Inhibition of glycoprotein in VSV pseudotyped Ebolavirus infected in African green monkey Vero cells assessed as reduction in virus entry incubated for 24 hrs by luciferase reporter gene assay. The format is cell-based. (A reporter such as luciferase makes a cellular process visible.)
The test system of data set [3] is Vero. The data set can be described thus: Inhibition of glycoprotein in pseudotyped Vesicular stomatitis virus infected in African green monkey Vero cells assessed as reduction in virus entry at 5 uM incubated for 24 hrs by luciferase reporter gene assay. The format is cell-based.
The nature of data set [4]: Kinetic aqueous solubility of compound in PBS at pH 6.4 to 7.5 measured after 2 hrs by spectrophotometry analysis. The format is physicochemical. To be noted: read-out: Kinetic_solubility.
A further data set deals with Ebolavirus. In words: Antiviral activity against wild type Ebolavirus infected in African green monkey Vero cells assessed as reduction in plaque forming units incubated for 10 days by crystal violet staining based assay. To be noted: Orthoebolavirus, 240 h. The class given is functional, organism-based.
The nature of data set [5]: Metabolic stability in dog liver microsomes assessed as parent compound remaining at 1 uM pretreated for 30 mins followed by NADPH addition and measured after 60 mins by LC-MS/MS analysis. The format is ADME, Canis lupus familiaris, Microsome. The note with it: read-out: Stability. (Microsomes from liver hold many membrane-bound enzymes, among them those of drug oxidation.)

The nature of data set [6]: Metabolic stability in rat liver microsomes assessed as parent compound remaining at 1 uM pretreated for 30 mins followed by NADPH addition and measured after 60 mins by LC-MS/MS analysis. The note with it: read-out: Stability. The class given is ADME, Microsome.
Data set [7] can be described thus: Cytotoxicity against African green monkey Vero E6 cells assessed as reduction in cell viability incubated for 10 days by neutral red dye based spectrophotometry analysis. Also noted: species or system Vero C1008. The note with it: chlorocebus sabaeus.
Data set [8] can be described thus: Aqueous solubility of compound in PBS at pH 7.4 measured after 2 hrs by spectrophotometry analysis. The format is physicochemical.
The nature of data set [9]: Metabolic stability in human liver microsomes assessed as parent compound remaining at 1 uM pretreated for 30 mins followed by NADPH addition and measured after 60 mins by LC-MS/MS analysis. The format is ADME, Microsome. The note with it: microsomes, 1 h, 1 µM.
Data set [10] can be described thus: Metabolic stability in guinea pig liver microsomes assessed as parent compound remaining at 1 uM pretreated for 30 mins followed by NADPH addition and measured after 60 mins by LC-MS/MS analysis. The format is ADME, Cavia porcellus, Microsome. The note with it: read-out: Stability.
The nature of data set [11]: Selectivity index, ratio of CC50 for African green monkey Vero E6 cells assessed as reduction in cell viability incubated for 10 days by neutral red dye based spectrophotometry analysis to EC50 for wild type Ebolavirus infected in African green monkey Vero cells assessed as reduction in plaque forming units incubated for 10 days by crystal violet staining based assay. The class given is toxicity, Vero C1008. To be noted: read-out: Ratio CC50/EC50.

Data set [12] is described as follows: Metabolic stability in Cynomolgus monkey liver microsomes assessed as parent compound remaining at 1 uM pretreated for 30 mins followed by NADPH addition and measured after 60 mins by LC-MS/MS analysis. The class given is ADME, Macaca fascicularis, Microsome. To be noted: read-out: Stability.
Data set [13] in a line: Metabolic stability in mouse liver microsomes assessed as parent compound remaining at 1 uM pretreated for 30 mins followed by NADPH addition and measured after 60 mins by LC-MS/MS analysis. The note with it: read-out: Stability. The class given is ADME, Microsome.

Active and inactive are the calls of the source. No cut-off for these calls is given here.

Regarding `O=C(NC1CCN(Cc2ccccc2)CC1)C12CC3CC(CC(C3)C1)C2`, the inhibition with Vero [1] was above 50%. Further, the EC50 in data set [2] (Orthoebolavirus, Vero, 24 h) is 3.9 µM. Further, the inhibition entry in the data set on Vero [3] is “inactive”. The solubility kinetic at 2 h in data set [4] is above 100 µM.
In the case of `CCC12CC3CC(C(=O)N[C@H]4CC[C@H](N)CC4)(C1)CC(c1ccccc1)(C3)C2` (stereo in doubt; 42), the EC50 with Ebolavirus was 0.14 µM; in data set [2] (vero) it was 0.012 µM. Further, the remaining at 1 h, 1 µM in data set [5] was 77%; in data set [6], 46%; in data set [10] it was 36%; in [12], 60%; in [13], 60%. The 50% cytotoxic concentration (CC50) at 240 h in data set [7] is 31 µM. In data set [8], the solubility at 2 h is above 20 mg/mL. Also, the Stability in data set [9] worked out at 65%. For the same compound, the selectivity ratio at 240 h in data set [11] came to 221.

One may read the inhibition as the drop in the measured response relative to a control, in per cent. For orientation: EC50 means the concentration at which the effect is half-maximal. Broadly, the CC50 is the concentration at which the toxic effect on the cells reaches its halfway point. Usually solubility stands for the concentration that dissolves in the medium under given conditions.
